Data: patent publication US20070254324A1, “Method for determination of platelet function under flow conditions” (DADE BEHRING MARBURG GmbH, priority 2006, published 2007)

Assays:
Type in all cases: cell-based, human
[1] = test system: platelet function in whole blood; test: Closure time under flow conditions, PFA-100 Col/Epi test cartridge; conditions: for Number of samples with closure times above the cut-off (n = 11): cut-off 158 seconds, ASA 30 μmol/L
Description: (§1) Venous blood was taken from 11 healthy donors and anticoagulated with sodium citrate (3.2% buffered Na citrate).
(§2) Aliquots of the citrated whole blood sample were treated in vitro with the P2Y(12) antagonist MRS 2395 (Sigma-Aldrich Chemie GmbH, Steinheim, Germany). For this purpose an ethanolic MRS 2395 stock solution (15 mg/mL) was mixed with the whole blood samples so that an end concentration of 100 μmol/L was obtained.
(§3) Further aliquots of the citrated whole blood samples were treated in vitro with the COX-1 inhibitor acetylsalicylic acid (abbr.: ASA; Sigma-Aldrich Chemie GmbH, Steinheim, Germany). For this purpose an aqueous ASA stock solution (1 mg/mL) was mixed with whole blood samples so that an end concentration of 30 μmol/L was obtained.
(§4) After addition of the reagents the blood samples were incubated at room temperature for 5 minutes.
(§5) Venous blood was taken from healthy donors and anticoagulated with sodium citrate (3.2% buffered Na citrate). The closure time determination was carried out for each whole blood sample in the PFA-100® apparatus. Samples from 186 donors were determined in duplicate with a Col/Epi PFA-100® test cartridge [see Example 1d)] and a Col/ADP PFA-100® test cartridge [see Example 1d)].
(§6) The reference ranges (normal range) for the Col/Epi closure time and the Col/ADP closure time were established in that the measurement value ranges determined in which 90% of the measurement values for the healthy subjects were found (90% central interval of the normal distribution of all measurements). This gave the following reference ranges for the closure times:
(§7) The upper reference limit of the reference range was defined as cut-off, i.e. as threshold value, for a platelet dysfunction. If the closure time of a patient sample deviates from the reference range it can indicate a platelet dysfunction. This means Col/Epi closure times that are greater than 158 seconds and Col/ADP closure times that are greater than 115 seconds indicate the presence of a platelet dysfunction within the sense of a reduced aggregation efficiency.
(§8) To determine the closure time using a Col/Epi PFA-100® test cartridge (2 μg of collagen and 10 μg of epinephrine on the partition member; 150 μm aperture diameter; Dade Behring Marburg GmbH, Marburg, Germany) and using a Col/ADP PFA-100® test cartridge (2 μg of collagen and 50 μg of ADP on the partition member; 150 μm aperture diameter; Dade Behring Marburg GmbH, Marburg, Germany) as measure of platelet function, whole blood samples described in Example 1a) were investigated in a PFA-100® apparatus (Platelet Function Analyzer-100, Dade Behring Marburg GmbH, Marburg, Germany).
(§9) Aliquots of the samples described in 1a) were taken and mixed according to the invention either with prostaglandin E1 (abbr.: PGE1) or with forskolin (both purchased from Sigma-Aldrich Chemie GmbH, Steinheim, Germany) for activating intracellular adenylate cyclases. For this purpose, the samples were mixed with an ethanolic PGE1 stock solution (0.05 mg/mL) or with an ethanolic forskolin stock solution (5 mg/mL) to reach a final concentration of 12.5 nM PGE1 or a final concentration of 1 μM forskolin. Further aliquots of the samples described in 1a) were not mixed with an activator of intracellular adenylate cyclases and served as control.
(§10) Then in each case 800 μl of the blood samples mixed with PGE1 or forskolin, or of the control samples were put into the reservoir of a Col/Epi or Col/ADP test cartridge (+37° C.) and incubated in the apparatus at +37° C. for 3 minutes. A partial vacuum of −40 mbar was generated by the apparatus, thus sucking the blood out of the reservoir through the capillary (diameter 200 μm) and finally through the opening (aperture) of the partition member into the measurement chamber. The closure time was determined as the time required until the aperture was closed by formation of a blood clot. […]

[2] = test system: platelet function in whole blood; test: Closure time under flow conditions, PFA-100 Col/ADP test cartridge; conditions: for Number of samples with closure times above the cut-off (n = 11): cut-off 115 seconds, ASA 30 μmol/L
Description: as §1, §2, §3, §4, §5, §6, §7, §8, §9, §10

[3] = test system: platelet aggregation in platelet rich plasma; test: ADP induced light transmission aggregometry (according to Born); conditions: 100 μmol/L MRS 2395 in vitro; PRP; 5 μM ADP
Description: as §1, §2, §4
In order to check whether the samples treated with MRS 2395 actually show a reduced platelet aggregation, platelet rich (PRP) and platelet poor (PPP) plasma was prepared from aliquots of the untreated and MRS 2395-treated whole blood samples described under Example 1a). Then the samples were treated with 5 μM ADP. The PPP samples were used as blank controls. The photometric measurement of the aggregation reaction was carried out in the automated coagulation apparatus BCT® (Dade Behring Marburg GmbH, Marburg, Germany) under continuous stirring (600 rpm). The platelet aggregation of the samples treated with MRS 2395 was reduced by a mean of 27% compared with the platelet aggregation of the untreated samples.

[4] = normal untreated whole blood, 12.5 nM PGE1 or 1 μM forskolin
[5] = +1 μM forskolin, MRS 2395 100 μmol/L
[6] = Control (no activator), MRS 2395 100 μmol/L
[7] = +12.5 nM PGE1, MRS 2395 100 μmol/L
[8] = +1 μM forskolin, MRS 2395 100 μmol/L, listed as ASA

Compound | prolongation of the closure times of the controls [1, 4] | prolongation of the closure times of the controls [2, 4] | platelet aggregation reduced compared with the untreated samples (mean) [3] | Number of samples with closure times above the cut-off (n = 11) [1, 5] | Number of samples with closure times above the cut-off (n = 11) [1, 6] | Number of samples with closure times above the cut-off (n = 11) [2, 5] | Number of samples with closure times above the cut-off (n = 11) [2, 6] | Number of samples with closure times above the cut-off (n = 11) [1, 7] | Number of samples with closure times above the cut-off (n = 11) ([1]; +12.5 nM PGE1, MRS 2395 100 μmol/L, listed as ASA) | Number of samples with closure times above the cut-off (n = 11) [1, 8] | Number of samples with closure times above the cut-off (n = 11) [2, 7] | Number of samples with closure times above the cut-off (n = 11) [2, 8]
CCCCC[C@H](O)/C=C/[C@H]1[C@H](O)CC(=O)[C@@H]1CCCCCCC(=O)O [prostaglandin E1] | significant prolongation | Neither the amount of forskolin used nor the amount of prostaglandin E1 used led to a significant prolongation |  |  |  |  |  |  |  |  |  | 
CNc1nc(Cl)nc2c1ncn2CC(COC(=O)C(C)(C)C)COC(=O)C(C)(C)C [MRS 2395, 2,2-dimethyl-propionic acid 3-(2-chloro-6-methylaminopurin-9-yl)-2-(2,2-dimethyl-propionyloxymethyl)-propyl ester] |  |  | 27% | 9 | 3 | 10 | 2 |  |  |  |  | 
CC(=O)Oc1ccccc1C(=O)O [Acetylsalicylic acid, acetylsalicylic acid] |  |  |  | 11 | 8 | 0 | 1 | 11 | all | all | 4 | none
